For series [1], the system named is NSCLC CDX model HCC827-ER1 (EGFR exon 19 deletion E746-A750). Particulars: mouse, in vivo. As to the method: Body weights were measured twice per week after randomization.
For another series, the system named is cMET than EGFR. To be noted: Moores et al. (2016); cited from earlier work.

The source of these data is patent US20250179193A1, “TREATMENT WITH AN ANTIBODY THAT BINDS EGFR AND CMET” (MERUS N.V., priority 2022, published 2025).

As for `C=CC(=O)Nc1cc(Nc2nccc(-c3cn(C)c4ccccc34)n2)c(OC)cc1N(C)CCN(C)C` [Osimertinib], in series [1], the absolute body weight result is “lower compared to Groups 1 and 2”.
Consider “JNJ-61186372: bispecific cMET×EGFR antibody produced by controlled Fab-arm exchange (Moores et al 2016)”, for which the “affinity imbalance, greater affinity for cMET than EGFR” value in the series on cMET than EGFR is given as “approximately 40 ×”.
